Measured values published in patent US20220273005A1, “METHOD OF INDUCING BACTERIAL HEAT SENSITIVITY” (THE STATE OF ISRAEL, MINISTRY OF AGRICULTURE & RURAL …, priority 2019, published 2022).

Tests used:
Bacillus subtilis wt [1] = details: wt strain with Mg2+ ions; previously shown; cited from earlier work
Bacillus subtilis wt [2] = details: wt strain with Mg2+ ions; previously shown; cited from earlier work; remark: listed apart in the source
[3] = tested on: Bacillus subtilis YC189 (PtapA-cfp) bundle biofilm; experiment: Bundle biofilm formation and tapA promoter (PtapA-cfp) activity with CL added, fluorescence microscopy; format: cell-based
Protocol: (§1) Three kinds of biofilms were tested—colony type, pellicle and bundles. For colony type—bacteria were grown in LB medium for 5h and then 3-5 μl of the culture were spotted on an LB-GM (1% tryptone, 0.5% yeast extract, 0.5% NaCl, 1% glycerol, 0.1 mM MnSO4 and 2% agar) (Difco) or modified MRS (MMRS—MRS pH 7) (Man, Rogosa & Sharpe) (Hy-labs) plates. Once the spotted drops were soaked into the medium, the plates were incubated upside down at 30° C. for 72 h. For pellicle biofilm formation 24-well plates were used. Bacteria were grown in LB medium for 5 h and then the culture was diluted 1:1000 into MMRS. Next, plates were incubated at 30° C., 20 rpm for 48 h. For the experiments with supplementation of CL, 0-100 μM CL dissolved in chloroform was added (final concentration of chloroform was 0.2%). For bundle type biofilm, a starter culture was prepared using a single bacterial colony inoculated into 5 ml of LB medium overnight at 30° C., 150 rpm. Next, bacteria were diluted 1:100 into fresh MMRS at 37° C., 25 rpm and after 5-7 h a 1 ml sample was taken and washed twice with sterile water. For longer incubation times, a starter culture was prepared using a single bacterial colony inoculated into 3 ml of LB medium for 5 h at 37° C., 150 rpm. Next, bacteria were diluted 1:100 into fresh MMRS at 23° C., 25 rpm overnight. The samples were visualized by fluorescence microscopy.
(§2) For visualization of bundle type biofilm a 1 ml sample was taken and washed twice with sterile water. Next Nonyl Acridine Orange (NAO) (Invitrogen A1372) was added to a final concentration of 100 nM for a 20 minutes incubation at room temperature. Next 3-7 μl from each sample were loaded on a microscopy glass slide. The samples were visualized using a fluorescent microscope in a transmitted light microscope using differential interference contrast (DIC) and 426-450 nm laser for CFP excitation (for visualization of YC189) or 457 nm-487 nm laser for GFP excitation (for visualization of NAO stained samples) (Nikon Eclipse Ti2).

[4] = tested on: Bacillus subtilis ΔclsA and ΔclsB mutants; experiment: Rescue of the biofilm phenotype of the cls mutants by added CL; format: cell-based; details: 10-fold serial dilutions of CL in the medium; data not shown
Protocol: as §1, with “microscopy. […]” for “microscopy.”

[5] = tested on: Bacillus subtilis NCIB 3610 pellicle biofilm; experiment: Pellicle biofilm formation with CL added to the medium; format: cell-based; details: FIG. 5A
Protocol: as §1, with “Next, plates were incubated at 30° C., 20 rpm for 48 h.” left out

B. subtilis (WT 3610) = experiment: Combined effect of CL and surfactin on pellicle formation, NAO staining; format: cell-based, Bacillus subtilis; details: high concentration (50 μM), about 20 h, FIG. 6
Protocol: as §2
B. subtilis (WT 3610) was grown for 5 h at 37° C., 150 rpm according to the conditions described above. Then 2 μl of bacteria were added to 1 ml LBG accompanied by solutions with different concentrations of CL and surfactin. After about 20 h the samples were stained with NAO (according to the protocol described herein), which was added to the unwashed samples. Finally, the samples were washed after the staining and the pellicle formation was tested.

[6] = CL 10 μM and 100 μM, after 12 h, YC189, FIG. 5B

| Compound | sensitivity to heat treatments (Bacillus subtilis wt [1]) | biofilm formation (Bacillus subtilis wt [2]) | biofilm (bundle) formation [3, 6] | stimulation of the tapA operon (PtapA-cfp) [3, 6] | biofilm formation ([3]; CL 10 μM, after 18 h, YC189, FIG. 5C) | biofilm (bundle) formation ([3]; high concentrations of CL, after 18 h, YC189, FIG. 5C) | rescue of the mutants' biofilm phenotype [4] | biofilm formation (pellicle) ([5]; CL 50 μM, 18 h post treatment) | pellicle biofilm formation ([5]; CL 5-50 μM, after 18 hours) | string-like structures connecting the bacteria (B. subtilis (WT 3610)) |
| --- | --- | --- | --- | --- | --- | --- | --- | --- | --- | --- |
| [Mg+2] [Mg^2+ ions] | more sensitive to heat treatments | biofilm is not formed | – | – | – | – | – | – | – | – |
| cardiolipin [CL] | – | – | biofilm is not formed | not stimulated | substantially reduced | bundles start to form | not able to rescue | reduced biofilm formation | delay in pellicle biofilm formation | string-like structures connecting the bacteria have been observed |
